Tested on: SARS-CoV-2
Type: cell-based
Details: 200 μM, Vero E6, CCK8

Row | SMILES | protection on cells from death caused by viral infection
1 | CCN1Cc2cc(OC)c(OC)cc2-c2cccc(NC(=O)C(F)(F)F)c21 [Compound 16, N-(5-Ethyl-8,9-dimethoxy-5,6-dihydrophenanthridin-4-yl)-2,2,2-trifluoroacetamide] | ~100%
2 | CCN1Cc2cc(OC)c(OC)cc2-c2cccc(N)c21 [Compound 12, 5-Ethyl-8,9-dimethoxy-5,6-dihydrophenanthridin-4-amine] | ~100%

From paper PMC8559303 (European Journal of Medicinal Chemistry, 2021)
